Measured values as given in patent publication US20030133987A1, “Drug nanoparticles from template emulsions” (priority 2002, published 2003).

Test: In-vitro dissolution, standard protocol according to USP 24 monographs
Assay type: physicochemical
Conditions: HPLC or UV/VIS detection, control (drug as received) in parenthesis
Protocol: The dissolution progress was measured after 5, 10, 15, and 60 minutes using either High Pressure Liquid Chromatography (HPLC) or UV/VIS detection as the analytical tools. […] For comparison, the corresponding data for the controls are given in parenthesis.

CC(=O)N1CCN(c2ccc(OCC3COC(Cn4ccnc4)(c4ccc(Cl)cc4Cl)O3)cc2)CC1 (stereo not shown) [Ketoconazole, ketoconazole]
percent of dissolved sample, 5 min (5 min): 31%
percent of dissolved sample, 10 min (10 min): 41%
percent of dissolved sample, 15 min (15 min): 48%
percent of dissolved sample, 60 min (60 min): (100%)
